In patent US20250215029A1 (Recludix Pharma, Inc., priority 2022, published 2025):

Columns and labels:
[1] = target: T1, Recombinant STAT3 protein (STAT3 (G127-I722)) (Homo sapiens, UniProt P40763); test: STAT3 Fluorescence Polarization (FP) Assay; type: binding; conditions: STAT3 (G127-I722) 25 nM, probe 5-FAM-GpYLPQTV-NH2 2 nM, 45-minute incubation; read-out: STAT3 (FP assay IC50 class)
T1 construct: Recombinant STAT3 protein (STAT3 (G127-I722))
Description: STAT3 Fluorescence Polarization (FP) Assay
An FP assay was developed to determine IC50 values for test substances. Recombinant STAT3 protein (STAT3 (G127-I722)) at 25 nM was combined with a fluorescently labeled, phosphotyrosine peptide probe (5-FAM-GpYLPQTV-NH2) at 2 nM in FP buffer (10 mM HEPES pH 7.4, 50 mM NaCl, 1 mM EDTA, 0.05% Tween 20.2 mM DTT). 50 μL of STAT3-probe mixture was added to serial diluted compounds in black, 96-well plates (Greiner BioOne 655076) to a final concentration of 1% DMSO. Reaction components were mixed, and FP was measured after 45-minute incubation at room temperature using a Tecan Spark multimode plate reader. FP signal (mP) was plotted against the log concentration of the test substances and IC50 values were calculated by nonlinear regression analysis using GraphPad Prism software. For STAT3 FP assay, A=≤100 nM; B=>100-1000 nM; C=>1-10 μM; and D=>10 μM.

[2] = target: T2, Recombinant STAT6 protein (STAT6 (W123-T658)) (Homo sapiens, UniProt P42226); test: STAT6 Fluorescence Polarization (FP) Assay; type: binding; conditions: STAT6 (W123-T658) 250 nM, probe 5-FAM-Ap[…]-NH2 2 nM, 45-minute incubation; read-out: STAT6 (FP assay IC50 class)
T2 construct: Recombinant STAT6 protein (STAT6 (W123-T658))
T2 sequence (P42226 123-658): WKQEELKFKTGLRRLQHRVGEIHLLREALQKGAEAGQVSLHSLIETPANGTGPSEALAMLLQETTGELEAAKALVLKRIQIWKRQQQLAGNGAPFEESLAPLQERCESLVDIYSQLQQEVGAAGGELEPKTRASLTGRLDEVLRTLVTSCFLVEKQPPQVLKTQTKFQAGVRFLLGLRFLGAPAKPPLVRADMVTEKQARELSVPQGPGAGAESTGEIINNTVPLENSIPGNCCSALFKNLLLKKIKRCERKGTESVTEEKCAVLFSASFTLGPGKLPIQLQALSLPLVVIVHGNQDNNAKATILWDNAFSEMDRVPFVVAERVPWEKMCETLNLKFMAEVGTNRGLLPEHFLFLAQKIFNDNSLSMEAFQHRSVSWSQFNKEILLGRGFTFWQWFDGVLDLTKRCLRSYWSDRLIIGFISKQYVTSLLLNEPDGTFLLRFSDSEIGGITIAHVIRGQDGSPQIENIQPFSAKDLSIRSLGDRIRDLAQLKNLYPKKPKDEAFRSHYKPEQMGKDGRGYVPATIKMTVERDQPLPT
Description: STAT6 Fluorescence Polarization (FP) Assay
An FP assay was developed to determine IC50 values for test substances. Recombinant STAT6 protein (STAT6 (W123-T658)) at 250 nM was combined with a fluorescently labeled, phosphotyrosine peptide probe (5-FAM-Ap[…]-NH2) at 2 nM in FP buffer (10 mM HEPES pH 7.4, 50 mM NaCl, 1 mM EDTA, 0.05% Tween 20, 2 mM DTT). 50 μL of STAT6-probe mixture was added to serial diluted compounds in black, 96-well plates (Greiner BioOne 655076) to a final concentration of 1% DMSO. Reaction components were mixed, and FP was measured after 45-minute incubation at room temperature using a Tecan Spark multimode plate reader. FP signal (mP) was plotted against the log concentration of the test substances and IC50 values were calculated by nonlinear regression analysis using GraphPad Prism software. For STAT6 FP assay, A=≤300 nM; B=>300-3000 nM; C=>3-30 μM; and D=>30 μM.

T1 sequence (P40763 127-722): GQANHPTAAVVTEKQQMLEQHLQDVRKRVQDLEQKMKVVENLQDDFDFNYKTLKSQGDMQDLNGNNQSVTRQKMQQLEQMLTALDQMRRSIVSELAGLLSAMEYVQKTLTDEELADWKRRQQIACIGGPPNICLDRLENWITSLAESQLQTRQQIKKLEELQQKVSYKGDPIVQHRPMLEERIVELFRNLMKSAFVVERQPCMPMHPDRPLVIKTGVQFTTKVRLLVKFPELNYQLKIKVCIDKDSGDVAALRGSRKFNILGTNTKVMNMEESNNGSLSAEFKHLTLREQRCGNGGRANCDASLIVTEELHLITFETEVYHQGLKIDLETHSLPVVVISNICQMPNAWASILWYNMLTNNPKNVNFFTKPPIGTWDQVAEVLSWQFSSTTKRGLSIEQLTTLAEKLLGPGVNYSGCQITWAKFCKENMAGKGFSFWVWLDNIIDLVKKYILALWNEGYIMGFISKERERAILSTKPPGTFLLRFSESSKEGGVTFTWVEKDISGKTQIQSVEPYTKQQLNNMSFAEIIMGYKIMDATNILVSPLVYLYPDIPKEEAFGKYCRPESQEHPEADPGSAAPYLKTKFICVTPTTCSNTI

IC50 [1] [µM]	IC50 [2] [µM]	Compound
1 to 10	0.3 to 3	O=C(N[C@H]1CCCC[C@H]2CC[C@@H](C(=O)N3CC(c4ccccc4)CC34CC4)N2C1=O)c1ccc2ccc(CP(=O)(O)O)cc2c1 (stereo partly drawn) [Compound 884, ((7-(((3S,6S,10aS)-5-oxo-3-(6-phenyl-4-azaspiro[2.4]heptane-4-carbonyl)decahydropyrrolo[1,2-a]azocin-6-yl)carbamoyl)naphthalen-2-yl)methyl) phosphonic acid]
0.1 to 1	3 to 30	O=C(N[C@H]1CCC[C@H]2CC[C@@H](C(=O)N3CC(c4ccnc(O)c4)C3)N2C1=O)c1cc2cc(C(F)P(=O)(O)O)ccc2s1 (stereo partly drawn) [Compound 619, (fluoro(2-(((3S,6S,9aS)-3-(3-(2-hydroxypyridin-4-yl)azetidine-1-carbonyl)-5-oxooctahydro-1H-pyrrolo[1,2-a]azepin-6-yl)carbamoyl)benzo [b]thiophen-5-yl)methyl) phosphonic acid]
< 0.1	3 to 30	C[C@@H]1C[C@H]2CC[C@@H](C(=O)N3CC(c4cnccc4N(C)C)C3)N2C(=O)[C@@H](NC(=O)c2cc3cc([C@H](F)P(=O)(O)O)ccc3s2)C1 [Compound 735, ((R)-(2-(((3S,6S,8S,9aR)-3-(3-(4-(dimethylamino)pyridin-3-yl)azetidine-1-carbonyl)-8-methyl-5-oxooctahydro-1H-pyrrolo[1,2-a]azepin-6-yl)carbamoyl)benzo [b]thiophen-5-yl)fluoromethyl) phosphonic acid]
1 to 10	3 to 30	Cn1c(C2CN(C(=O)[C@@H]3CC[C@@H]4CCCC[C@H](NC(=O)c5cc6cc(CP(=O)(O)O)ccc6s5)C(=O)N43)C2)nc2ccccc21 [Compound 662, ((2-(((3S,6S,10aS)-3-(3-(1-methyl-1H-benzo[d]imidazol-2-yl)azetidine-1-carbonyl)-5-oxodecahydropyrrolo [1,2-a]azocin-6-yl)carbamoyl)benzo [b]thiophen-5-yl)methyl) phosphonic acid]
1 to 10	0.3 to 3	O=C(N[C@H]1CCCC[C@H]2CC[C@@H](C(=O)N3C(=O)N(c4ccn(C(F)F)c(=O)c4)C(=O)C34CC4)N2C1=O)c1cc2cc(C(F)P(=O)(O)O)ccc2s1 (stereo partly drawn) [Compound 572, ((2-(((3S,6S,10aS)-3-(6-(1-(difluoromethyl)-2-oxo-1,2-dihydropyridin-4-yl)-5,7-dioxo-4,6-diazaspiro[2.4]heptane-4-carbonyl)-5-oxodecahydropyrrolo[1,2-a]azocin-6-yl)carbamoyl)benzo[b]thiophen-5-yl)fluoromethyl)phosphonic acid]
< 0.1	0.3 to 3	CS(=O)(=O)NC1CN(C(=O)[C@@H]2CC[C@@H]3CCCC[C@H](NC(=O)c4cc5cc(C(F)(F)P(=O)(O)O)ccc5s4)C(=O)N32)C1 [Compound 787, (difluoro(2-(((3S,6S,10aS)-3-(3-(methylsulfonamido)azetidine-1-carbonyl)-5-oxodecahydropyrrolo [1,2-a]azocin-6-yl)carbamoyl)benzo [b]thiophen-5-yl)methyl) phosphonic acid]
1 to 10	3 to 30	N#Cc1nccc(C2CN(C(=O)[C@@H]3CC[C@@H]4CCC[C@H](NC(=O)c5cc6cc(CP(=O)(O)O)ccc6s5)C(=O)N43)C2)n1 [Compound 515, ((2-(((3S,6S,9aS)-3-(3-(2-cyanopyrimidin-4-yl)azetidine-1-carbonyl)-5-oxooctahydro-1H-pyrrolo[1,2-a]azepin-6-yl)carbamoyl)benzo[b]thiophen-5-yl)methyl)phosphonic acid]
< 0.1	3 to 30	O=C(N[C@H]1CCC[C@H]2CC[C@@H](C(=O)N3CC(c4cnccc4N4C[C@@H]5C[C@H]4CO5)C3)N2C1=O)c1cc2cc(C(F)P(=O)(O)O)ccc2s1 (stereo partly drawn) [Compound 683, ((2-(((3S,6S,9aS)-3-(3-(4-((1S,4S)-2-oxa-5-azabicyclo[2.2.1]heptan-5-yl)pyridin-3-yl)azetidine-1-carbonyl)-5-oxooctahydro-1H-pyrrolo[1,2-a]azepin-6-yl)carbamoyl)benzo [b]thiophen-5-yl)fluoromethyl) phosphonic acid]
< 0.1	3 to 30	COc1ccncc1C1CN(C(=O)[C@@H]2CC[C@@H]3C[C@@H](C)C[C@H](NC(=O)c4cc5cc([C@H](F)P(=O)(O)O)ccc5s4)C(=O)N32)C1 [Compound 749, ((R)-fluoro(2-(((3S,6S,8S,9aR)-3-(3-(4-methoxypyridin-3-yl)azetidine-1-carbonyl)-8-methyl-5-oxooctahydro-1H-pyrrolo[1,2-a]azepin-6-yl)carbamoyl)benzo [b]thiophen-5-yl)methyl) phosphonic acid]
< 0.1	0.3 to 3	O=C(N[C@H]1CCC[C@H]2CC[C@@H](C(=O)N3CC(c4cncnc4N4CCC4)C3)N2C1=O)c1cc2cc([C@H](F)P(=O)(O)O)ccc2s1 (single isomer, unassigned) [Compound 689]
1 to 10	3 to 30	O=C(N[C@H]1CCCC[C@H]2CC[C@@H](C(=O)N3CC(c4ccccc4)CC34CC4)N2C1=O)c1ccc2cnc(CP(=O)(O)O)cc2c1 (stereo partly drawn) [Compound 570, ((6-(((3S,6S,10aS)-5-oxo-3-(6-phenyl-4-azaspiro[2.4]heptane-4-carbonyl)decahydropyrrolo[1,2-a]azocin-6-yl)carbamoyl)isoquinolin-3-yl)methyl)phosphonic acid]
1 to 10	0.3 to 3	O=C(N[C@H]1CCCC[C@H]2CC[C@@H](C(=O)N[C@@H]3CCN(c4ccn[nH]4)C3)N2C1=O)c1cc2cc(C(F)P(=O)(O)O)ccc2s1 (stereo partly drawn) [Compound 559, ((2-(((3S,6S,10aS)-3-(((R)-1-(1H-pyrazol-5-yl)pyrrolidin-3-yl)carbamoyl)-5-oxodecahydropyrrolo[1,2-a]azocin-6-yl)carbamoyl)benzo[b]thiophen-5-yl)fluoromethyl)phosphonic acid]
< 0.1	3 to 30	N#Cc1cc(C2CN(C(=O)[C@@H]3CC[C@@H]4CCC[C@H](NC(=O)c5cc6cc(C(F)P(=O)(O)O)ccc6s5)C(=O)N43)C2)ccn1 (stereo partly drawn) [Compound 918, ((2-(((3S,6S,9aS)-3-(3-(2-cyanopyridin-4-yl)azetidine-1-carbonyl)-5-oxooctahydro-1H-pyrrolo[1,2-a]azepin-6-yl)carbamoyl)benzo [b]thiophen-5-yl)fluoromethyl) phosphonic acid]
1 to 10	≤ 0.3	C[C@H]1C[C@H]2CC[C@@H](C(=O)N3C[C@H](c4ccccc4)[C@@H](C#N)C34CC4)N2C(=O)[C@@H](NC(=O)c2cc3cc([C@H](F)P(=O)(O)O)ccc3s2)C1 [Compound 849, ((R)-(2-(((3S,6S,8R,9aR)-3-((6S,7R)-7-cyano-6-phenyl-4-azaspiro[2.4]heptane-4-carbonyl)-8-methyl-5-oxooctahydro-1H-pyrrolo[1,2-a]azepin-6-yl)carbamoyl)benzo [b]thiophen-5-yl)fluoromethyl) phosphonic acid]
0.1 to 1	3 to 30	COC1(c2cncnc2C)CN(C(=O)[C@@H]2CC[C@@H]3CCC[C@H](NC(=O)c4cc5cc(C(F)(F)P(=O)(O)O)ccc5s4)C(=O)N32)C1 [Compound 721, (difluoro(2-(((3S,6S,9aS)-3-(3-methoxy-3-(4-methylpyrimidin-5-yl)azetidine-1-carbonyl)-5-oxooctahydro-1H-pyrrolo[1,2-a]azepin-6-yl)carbamoyl)benzo [b]thiophen-5-yl)methyl) phosphonic acid]
